Measurements taken from publication PMC4977052, “On the Utility of ToxCast™ and ToxPi as Methods for Identifying New Obesogens” (Environmental Health Perspectives, 2016).
Where “and” joins values, the source holds several entries; their conditions need not be identical. Identical values can stand only once. Entries after “also recorded” stand apart in the source; their conditions may differ. Like-named read-outs stand apart in the source and are kept apart here.

How the values were obtained:
GAL4-mPPARγ = target: T1, GAL4-mPPARγ (Mus musculus, UniProt P37238); experiment: GAL4-mPPARγ activation, transient transfection luciferase reporter in COS7 cells; type: cell-based
T1 construct: expressed in transfected cells; host or cells: COS7
T1 sequence (P37238 with tags, fused parts or gaps limits assumed): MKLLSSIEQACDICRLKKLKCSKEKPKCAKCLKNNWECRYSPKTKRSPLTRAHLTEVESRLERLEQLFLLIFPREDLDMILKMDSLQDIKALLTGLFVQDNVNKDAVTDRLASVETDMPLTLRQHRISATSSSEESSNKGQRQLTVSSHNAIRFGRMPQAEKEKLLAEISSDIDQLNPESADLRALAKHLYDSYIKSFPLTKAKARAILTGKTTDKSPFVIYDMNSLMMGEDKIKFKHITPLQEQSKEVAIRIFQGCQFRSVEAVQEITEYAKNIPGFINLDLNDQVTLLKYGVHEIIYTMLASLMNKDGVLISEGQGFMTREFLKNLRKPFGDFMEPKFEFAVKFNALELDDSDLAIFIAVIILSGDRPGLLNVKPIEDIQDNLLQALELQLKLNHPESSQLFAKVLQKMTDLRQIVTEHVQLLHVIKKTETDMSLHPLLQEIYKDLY
Protocol: pCMX-Gal4, pCMX-Gal4-mPPARγ, and pCMX-Gal4-hRXRα were previously described ([Grün et al. 2006]). Transient transfections were performed in COS7 cells as described ([Chamorro-García et al. 2012]). Briefly, COS7 cells were seeded at 15,000 cells per well in 96-well tissue culture plates in 10% calf bovine serum. The following day, cells were transfected in Opti-MEM at ~ 90% confluency. One microgram of CMX-GAL4 effector plasmid was co-transfected with 5 μg tk-(MH100)4-luciferase reporter and 5 μg of CMX-β-galactosidase transfection control plasmids in Opti-MEM® using Lipofectamine® 2000 reagent (Invitrogen™ Life Technologies, Carlsbad, CA, USA), following the manufacturer’s recommended protocol. All chemicals were solvated in dimethyl sulfoxide (DMSO). After overnight incubation, the medium was replaced with Dulbecco’s Modified Eagle Medium (DMEM; HyClone, Logan, UT, USA), 10% resin charcoal stripped fetal bovine serum (FBS) plus ligands at concentrations indicated in the figure legends for an additional 24 hr. DMSO concentration was maintained at 0.05% across all chemical treatments. Cells were lysed and assayed for luciferase and β-galactosidase activity as previously described ([Forman et al. 1995]). All transfections were performed in triplicate and reproduced in multiple experiments. Data are reported as fold induction or reduction over vehicle ([…]) controls ± SEM (standard error of the mean) using standard propagation of error ([Bevington and Robinson 2003]). […] The EC50, EC10, IC50, and IC10 values from NCGC and ToxCast™ are reported from gain AC50 and AC10 values in the ToxCast™ 2014 release ([Filer et al. 2014]).
Figure 1 ToxCast™ Chemical Activity on PPARγ. The ability of a graded dose series of ToxCast™ chemicals to (A) activate or (B) antagonize GAL4-mPPARγ was tested in transiently transfected COS7 cells. (A, B) Data points are averages of triplicate transfections (three biological replicates). […] Data are depicted as (A) fold induction or (B) reduction over vehicle (0.05% DMSO) controls ± SEM. (A) ToxCast™ chemicals were tested in 3-fold serial dilutions from 100 μM through 0.137 μM, with the final data point being 0.05% DMSO. Rosiglitazone serves as a positive control activator. (B) ToxCast™ chemicals were tested in 3-fold serial dilutions from 100 μM, in competition with 50 nM rosiglitazone (Rosi). […] (C) EC50, EC10, IC50, and IC10 values calculated from A and B are reported and compared to commercial assays (see Figure S1). Note: ATG, Attagene GAL-PPARγ activation assay; NCGC, GeneBLAzer® agonist (EC values) or antagonist (IC values) assays. Triphenyltin was previously published ([Kanayama et al. 2005]).
Figure 4 ToxPi Chemical Activity on PPARγ and RXRα. The ability of a graded dose series of ToxPi chemicals to activate (A) GAL4-mPPARγ or (B) GAL4-hRXRα was tested in transiently transfected COS7 cells. (A, B) Data points are averages of triplicate transfections (three biological replicates). […] ToxPi chemicals were tested in 3-fold serial dilutions from 100 μM through 0.137 μM, with the final data point being 0.05% DMSO. Data are depicted as fold induction over vehicle (0.05% DMSO) controls ± SEM. (A) Rosiglitazone serves as a positive control activator for GAL4-mPPARγ. (B) LG100268 (2-[1-(3,5,5,8,8-Pentamethyl-5,6,7,8-tetrahydro-2-naphthyl)cyclopropyl]pyridine-5-carboxylic acid) serves as a positive control activator for GAL4-hRXRα. (C) EC50 and EC10 values calculated from A and B are reported and compared to other assays (see Figure S1). ATG, Attagene GAL-PPARγ or GAL-RXRα activation assay; NCGC, GeneBLAzer® GAL-PPARγ or GAL-RXRα activation assays. Triphenyltin was previously published ([Kanayama et al. 2005]).

3T3-L1 preadipocytes = experiment: 3T3-L1 adipogenesis assay (lipid accumulation, adipogenic gene expression); type: cell-based; conditions: 0.02-20 μM, 5 days after MDI induction
Protocol: 3T3-L1 cells (ATCC) were maintained in high-glucose DMEM supplemented with 10% fetal bovine serum, 2 mM L-glutamine, 50 IU/mL penicillin, and 50 μg/mL streptomycin. A total of 2 × 10^4 cells per well were seeded in 12-well plates. After 48 hr, cells were exposed to the adipogenic cocktail MDI (500 μM isobutylmethylxanthine, 0.25 nM dexamethasone and 5 μg/mL insulin), 8 μg/mL biotin and 8 μg/mL pantothenate for 2 days. Induction media was removed and cells were exposed to test chemicals during 5 days, replacing the media every 2 days. Rosiglitazone (ROSI) and tributyltin (TBT) were used as positive controls at 100 nM and 50 nM final concentrations, respectively. All ToxCast™ chemicals were tested at 0.02, 0.2, 2, and 20 μM, and DMSO concentration was maintained at 0.1% across all treatments. If the chemical was toxic at 20 μM, we repeated the experiment at 10 μM.
Cells were either fixed in 3.7% formaldehyde in phosphate-buffered saline (PBS) for 30 min at room temperature (RT) for lipid quantitation, or homogenized in TriPure (Roche, Mannheim, Germany) for gene expression analysis. For lipid quantitation, fixed cells were washed twice with PBS and maintained in PBS overnight at 4°C to release residual phenol red. Background of cells were measured prior to staining. Cells were stained with 1 μg/mL Nile red (CAS No. 7385-67-3) (to detect lipid accumulation) and 1 μg/mL Hoechst 33342 (ThermoFisher Scientific) (to detect nuclei as a surrogate for cell number) in PBS for 15 min in the dark at RT and washed twice with PBS. […] Background values of Hoechst and Nile red were subtracted from the RFUs after staining and the ratio RFUNile Red:RFUHoechst was calculated. Data are represented as mean ± SEM. Total RNA was isolated using TriPure (Roche) as recommended by the manufacturer. Reverse transcription and quantitative real-time RT-PCR (QPCR) were performed using Transcriptor RT and SYBR® Green Master Mix (Roche). cDNA was quantitated in a LightCycler® 480 System (Roche Diagnostics, Basel, Switzerland) using primer sets listed in Table S4. Each primer set amplified a single band as determined by gel electrophoresis and melting curve analysis. QPCR data were analyzed using the 2^ΔΔCt method ([Livak and Schmittgen 2001]) relative to ribosomal protein 36b4, normalizing to 0.1% DMSO vehicle. Error bars represent the SEM from four to six biological replicates calculated using standard propagation of error ([Bevington and Robinson 2003]).

PPARγ [1] = conditions: cited from earlier work; for AC50: NA = not active
Human PPARγ = conditions: PPARγ direct binding; NA = not active; ref Filer et al. 2014; read-out: NVS Agonist AC50, 2014 Release; cited from earlier work
PPARγ [2] = system: PPARγ; parameters: method as in Filer et al. 2014; conditions: PPARγ; NA = not active; ref Filer et al. 2014; read-out: NCGC Antag. AC50, 2014 Release; cited from earlier work
C/EBP = system: C/EBP; parameters: method as in Knudsen et al. 2011; conditions: ToxCast Phase I 2011 release; NA = not active; ref Knudsen et al. 2011; read-out: ATGC CEBP AC50; cited from earlier work
LXRα = system: LXRα; parameters: method as in Knudsen et al. 2011; conditions: ToxCast Phase I 2011 release; NA = not active; ref Knudsen et al. 2011; read-out: ATGT LXRα AC50; cited from earlier work
LXRβ = system: LXRβ; parameters: method as in Knudsen et al. 2011; conditions: ToxCast Phase I 2011 release; NA = not active; ref Knudsen et al. 2011; read-out: ATGT LXRβ AC50; cited from earlier work
PPRE = system: PPRE; parameters: method as in Knudsen et al. 2011; conditions: ToxCast Phase I 2011 release; NA = not active; ref Knudsen et al. 2011; read-out: ATGC PPRE AC50; cited from earlier work
[3] = PPARγ, ref Filer et al. 2014, read-out: ATG Agonist AC50, 2014 Release
[4] = PPARγ, ref Knudsen et al. 2011, read-out: ATG Agonist AC50, 2011 Release
[5] = Cos-7 transient transfection, PPARγ or RXRα activation assays (Table 2)
[6] = ToxCast Phase I 2011 release, ref Knudsen et al. 2011, read-out: ATGT PPARγ AC50

With `Cc1ccc(-c2c(Cl)nc(C#N)n2S(=O)(=O)N(C)C)cc1` [Cyazofamid] the “Activation COS7 (result in words), ToxCast PPARγ list” value (GAL4-mPPARγ) was “Inactive”, the “Activation COS7 (result in words), ToxPi chemicals” value (“Activation COS7 … ToxPi chemicals” below) (GAL4-mPPARγ) was “Inactive” and the “Adipogenesis 3T3-L1 (result in words)” value (3T3-L1 preadipocytes) was “Negative”. The AC50 (PPARγ [1]; [3]) was 10.1 µM and 9.4 µM, the AC50 (PPARγ [1]; [4]) was 11 µM and the AC50 (Human PPARγ) was 9.6 µM. The AC50 (PPARγ [2]) was 32.3 µM, the AC50 (C/EBP) was 8.7 µM and the AC50 (LXRα) was 11 µM. The AC50 (LXRβ) was 13 µM and the AC50 (PPRE) was 12 µM.

In the case of `O=C(Nc1ccccc1)Nc1ccnc(Cl)c1` [Forchlorfenuron], the “Activation COS7 … ToxPi chemicals” value (GAL4-mPPARγ; [5]) is listed as “Inactive”, the “Adipogenesis 3T3-L1 (result in words)” value (3T3-L1 preadipocytes) is listed as “Positive” and the AC50 (PPARγ [1]; [6]) is listed as 46 µM. For the same molecule, the AC50 (C/EBP) was 40 µM, the AC50 (LXRβ) was 37 µM and the AC50 (PPRE) was 26 µM.

In the case of `CC(C)(C)c1ccc(CSc2cnn(C(C)(C)C)c(=O)c2Cl)cc1` [Pyridaben], the AC50 (GAL4-mPPARγ) is reported as 3 µM, the EC50 (GAL4-mPPARγ) is reported as 2.98 µM and the “Activation of GAL4-PPARγ (text)” value (GAL4-mPPARγ; COS7, 100 μM through 0.137 μM) is reported as “activated PPARγ”. The “PPARγ agonists: EC10, Fig 1A / Fig 4A” value (GAL4-mPPARγ; COS7, computed from EC50 in GraphPad Quick Calc) was 0.53 µM, the “Activation COS7 … ToxPi chemicals” value (GAL4-mPPARγ; [5]) was “PPARγ activator” and the “Adipogenesis 3T3-L1 (result in words)” value (3T3-L1 preadipocytes) was “strongly inhibited adipogenesis; also recorded: Inhibitor”. For the same molecule, the “PPARγ agonists: EC10, ATG” value (PPARγ [1]; AC10, ToxCast 2014 release, ref Filer et al. 2014) was 2.57 µM, the AC50 (PPARγ [1]; [6]) was 14 µM and the EC50 (PPARγ [1]; gain AC50, ToxCast 2014 release, ref Filer et al. 2014, read-out: PPARγ agonists: EC50, ATG) was 10.1 µM. The AC50 (PPRE) was 1.6 µM.

With `CCc1nn(C)c(C(=O)NCc2ccc(C(C)(C)C)cc2)c1Cl` [Tebufenpyrad] the “Activation COS7 (result in words), ToxCast PPARγ list” value (GAL4-mPPARγ; Cos-7 transient transfection, PPARγ activation or antagonism assays (Table 1, Table S6)) was “Inactive”, the “Activation COS7 … ToxPi chemicals” value (GAL4-mPPARγ; [5]) was “Inactive” and the “Adipogenesis 3T3-L1 (result in words)” value (3T3-L1 preadipocytes) was “Negative”. For the same molecule, the AC50 (PPARγ [1]; [3]) was 2.6 µM, the AC50 (PPARγ [1]; [4]) was 4.9 µM and the AC50 (PPARγ [2]) was 23.1 µM. The AC50 (LXRα) was 0.36 µM, the AC50 (LXRβ) was 0.46 µM and the AC50 (PPRE) was 0.83 µM.
